Results as given in US6068845A, “Inhibition of abnormal accumulation of extra-cellular matrices” (Institute for Advanced Skin Research Inc., priority 1996, dated 2000).

How the values were obtained:
[1] = test system: Human newborn dermal fibroblasts (NB1RBG); experiment: Inhibitory activity on the extracellular matrices production of fibroblasts with TGF-β, dye (Crystal Violet) staining method; type: cell-based; settings: Fibroblast, 120 h
Description: (§1) Human newborn dermal fibroblasts (NB1RBG) (obtained from the Institute of Physical and Chemical Research) was subcultured in DMEM medium containing 10 % fetal bovine serum for provision to the test.
(§2) 2×10^4 NB1RBG cells per well were incubated in flat-bottomed 96-well microtiter plates containing 100 μl/well of each of DMEM media each containing 1 % fetal bovine serum and containing one of the test samples and TGF-β (5 ng/ml), at 37° C.-5 % CO2 for 5 days. A group not containing any test sample or TGF-β was also prepared, and incubation thereof was carried out at the same time with the test groups. After the completion of the incubation, the flat-bottomed 96-well microtiter plates on which the adhered cells and the extracellular matrices were adhered were stained with the following two methods for evaluation, respectively.
First, the culture supernatants were removed, the wells were washed with phosphate-buffered physiological saline, 100 μl/well of 0.05 % Crystal Violet-20 % ethanol staining solution was added, and the mixtures were left alone at room temperature for 10 minutes. Then, the plates were washed with flowing water and air dried, the remaining Crystal Violet was dissolved with 100 μl/well of methanol, and the absorbance at O.D. 570-690 was measured by a plate reader. The inhibition percentages of the production of extracellular matrices in an unstimulating state and in a TGF-β-stimulating state were calculated according to the following equations.
(§3) The inhibition percentage of the production of extracellular matrices in an unstimulating state (%) [formula] The inhibition percentage of the production of extracellular matrices in a TGF-β-stimulating state (%) [formula] A: The absorbance of a group containing only the solvent with which the test sample was prepared, and not containing TGF-β.
B: The absorbance of a group containing a test sample, but not containing TGF-β.
C: The absorbance of a group containing the solvent with which the test sample was prepared, and TGF-β.
D: The absorbance of a group containing a test sample and TGF-β.

[2] = test system: Human newborn dermal fibroblasts (NB1RBG); experiment: Inhibitory activity on the extracellular matrices production of fibroblasts with TGF-β, collagen staining method (anti-human type I collagen antibody; type I collagen sedimentation); type: cell-based; settings: Fibroblast, 120 h
Source text: Test samples used were Intin-koo extract (Preparation example 1), Forsythia suspensa VAHL. extract (Preparation example 2), Sophora flavescens AITON. extract (Preparation example 3), Rheum palmatum L. extract (Preparation example 4), Glycyrrhiza alabra L. var. glandulifera Regel et Herder extract (Preparation example 5), Goboosi extract with water (Preparation example 6), Goboosi extract with ethanol (Preparation example 7), zhimu extract (Preparation example 8), Dokkatu extract (Preparation example 9), mutong extract (Preparation example 10), soozyutu extract (Preparation example 11), o-phenanthroline (produced by Dojin Chemical Co.: special grade chemical), 2,2'-dipyridyl (produced by Aldrich Chemical Co.) and malotilate (extracted from Kantec tablet produced by Daiichi Pharmaceutical Co.).
as §1, §2
(b) Staining with anti-collagen antibody
First, the culture supernatants were removed, the wells were washed with phosphate-buffered physiological saline, and fixation was carried out with methanol under ice cooling for 10 minutes. Then, blocking was made with milk protein solution, Block Ace (produced by DAINIPPON PHARMACEUTICAL CO.), and rabbit anti-human type I collagen antibody (produced by CHEMICON CO.), biotin-labeled anti-rabbit immunoglobulin (produced by Amersham CO.) and avidin-biotin-labeled peroxidase complex (produced by Amersham CO.) were successively reacted to enzyme-label the sedimented type I collagen. 100 μl/well of 0.1 M citric acid phosphate buffer (pH 4.0) containing 2.5 mM 2,2'-azino-bis(3-ethylbenzothia-zoline-6-sulfate) (produced by SIGMA CO.) and 0.015 % H2 O2 was reacted therewith, and one hour later, absorbance at O.D. 415 was measured by a plate reader. The inhibition percetages of the type I collagen sedimentation in an unstimulating state and in a TGF-β-stimulating state were calculated according to the following equations.
as §3, with “matrices in TGF-β-stimulating state” for “matrices in a TGF-β-stimulating state”, “(%) [formula] E: The absorbance” for “(%) [formula] A: The absorbance”
F: The absorbance of a group containing a test sample, but not containing TGF-β.
G: The absorbance of a group containing the solvent with which the test sample was prepared, and TGF-β.
H: The absorbance of a group containing a test sample and TGF-β.

[3] = test system: dermal fibrosis induced with bleomycin; experiment: Inhibitory activity on the production of collagen in dermal fibrosis model induced with bleomycin; type: in vivo, Hos:hr-1 male hairless mice; settings: bleomycin 10 mg/kg/day i.p. 10 days, day 30
Description: Hos:hr-1 male hairless mice (5 weeks old) were used.
10 mg/kg/day portions of bleomycin were intraperitoneally administered to the hairless mice for 10 successive days. 0.1 ml Portions of ethanol solutions or Vaseline ointments of the Sophora flavescens AITON. extraction, the Rheum palmatum L. extract, o-phenanthroline and malotilate were applied onto the back skins every day from the start of the test, respectively. 30 Days later from the start of the test, the back skins were excised. The amounts of collagen in the excised skins were assayed using hydroxyproline amount as an index.
The inhibition percentage of dermal fibrosis with bleomycin was caluculated according to the following equation.
Inhibition percentage of dermal fibrosis (%) [formula] J: Hydroxyproline amount in the untreated group K: Hydroxyproline amount in the group of bleomycin administration+application of the base alone
L: Hydroxyproline amount in the group of bleomycin administration+application of the drug

[4] = 1 × 10^-4 M, TGF-β 5 ng/ml, 5 days, read-out: Inhibition percentage of the extracellular matrices production, dye staining method, TGF-β (+)
[5] = 1 × 10^-4 M, unstimulated, 5 days, read-out: Inhibition percentage of the extracellular matrices production, dye staining method, TGF-β (-)
[6] = 1 × 10^-5 M, TGF-β 5 ng/ml, 5 days, read-out: Inhibition percentage of the extracellular matrices production, dye staining method, TGF-β (+)
[7] = 1 × 10^-5 M, unstimulated, 5 days, read-out: Inhibition percentage of the extracellular matrices production, dye staining method, TGF-β (-)
[8] = 1 × 10^-6 M, TGF-β 5 ng/ml, 5 days, read-out: Inhibition percentage of the extracellular matrices production, dye staining method, TGF-β (+)
[9] = 1 × 10^-6 M, unstimulated, 5 days, read-out: Inhibition percentage of the extracellular matrices production, dye staining method, TGF-β (-)
[10] = 1 × 10^-4 M, TGF-β 5 ng/ml, 5 days, read-out: Inhibition percentage of the extracellular matrices production, collagen staining method, TGF-β (+)
[11] = 1 × 10^-4 M, unstimulated, 5 days, read-out: Inhibition percentage of the extracellular matrices production, collagen staining method, TGF-β (-)
[12] = 1 × 10^-5 M, TGF-β 5 ng/ml, 5 days, read-out: Inhibition percentage of the extracellular matrices production, collagen staining method, TGF-β (+)
[13] = 1 × 10^-5 M, unstimulated, 5 days, read-out: Inhibition percentage of the extracellular matrices production, collagen staining method, TGF-β (-)
[14] = 1 × 10^-6 M, TGF-β 5 ng/ml, 5 days, read-out: Inhibition percentage of the extracellular matrices production, collagen staining method, TGF-β (+)
[15] = 1 × 10^-6 M, unstimulated, 5 days, read-out: Inhibition percentage of the extracellular matrices production, collagen staining method, TGF-β (-)
[16] = read-out: Inhibition percentage of the extracellular matrices production, dye staining method, TGF-β (+)
[17] = read-out: Inhibition percentage of the extracellular matrices production, dye staining method, TGF-β (-)
[18] = read-out: Inhibition percentage of the extracellular matrices production, collagen staining method, TGF-β (+)
[19] = read-out: Inhibition percentage of the extracellular matrices production, collagen staining method, TGF-β (-)

Structure (SMILES) | inhibition at 100 µM [1, 4] | inhibition at 100 µM [1, 5] | inhibition at 10 µM [1, 6] | inhibition at 10 µM [1, 7] | inhibition at 1 µM [1, 8] | inhibition at 1 µM [1, 9] | inhibition at 100 µM [2, 10] | inhibition at 100 µM [2, 11] | inhibition at 10 µM [2, 12] | inhibition at 10 µM [2, 13] | inhibition at 1 µM [2, 14] | inhibition at 1 µM [2, 15] | Hydroxyproline amount per weight of dried skin ([3]; 5% applied to back skin daily) | Inhibition percentage of dermal fibrosis ([3]; 5% applied to back skin daily) | Hydroxyproline amount per weight of dried skin ([3]; 10% applied to back skin daily) | Inhibition percentage of dermal fibrosis ([3]; 10% applied to back skin daily) | also measured
c1cnc2c(c1)ccc1cccnc12 [o-Phenanthroline, o-phenanthroline] | 95% | 0% | 86% | 0% | 1% | 7% | 100% | 20% | 90% | 16% | 27% | 11% | 1.72 ± 0.16 µg/mg | 43.3% | 1.43 ± 0.10 µg/mg | 86.6% | 
CC(C)OC(=O)C(C(=O)OC(C)C)=C1SC=CS1 [Malotilate, malotilate] | 92% | 20% | 53% | 23% | 18% | 21% | 98% | 7% | 68% | 6% | 20% | 9% | 1.66 ± 0.25 µg/mg | 52.2% | 1.47 ± 0.19 µg/mg | 80.6% | 
c1ccc(-c2ccccn2)nc1 [2,2'-Dipyridyl, 2,2'-dipyridyl] |  |  |  |  |  |  |  |  |  |  |  |  |  |  |  |  | inhibition at 1 µM [1, 16]: 7%; inhibition at 10 µM [1, 16]: 7%; inhibition at 100 µM [1, 16]: 84%; inhibition at 1 µM [1, 17]: 5%; inhibition at 10 µM [1, 17]: 25%; inhibition at 100 µM [1, 17]: 44%; inhibition at 1 µM [2, 18]: 14%; inhibition at 10 µM [2, 18]: 30%; inhibition at 100 µM [2, 18]: 77%; inhibition at 1 µM [2, 19]: 10%; inhibition at 10 µM [2, 19]: 15%; inhibition at 100 µM [2, 19]: 18%
